Reference: patent publication US20260166000A1, “1,8-CINEOLE CONTAINING COMPOSITION FOR THERAPEUTIC USE” (Maria Clementine Martin Klosterfrau Vertriebsgesellschaft …, priority 2020, published 2026)
“Also recorded” adds a separate entry of the source.

Assays:
[1] = tested on: Lachnospiraceae, Bifidobacterium or Faecalibacterium; assay: Microbiome sequencing of stool samples, bacterial genera; format: in vivo, human; conditions: patients with polyposis nasi; after 2-week therapy, 200 mg 3 times a day
Experimental: (§1) As part of the studies, the stool samples of patients with polyposis nasi are analyzed under the influence of 1,8-cineole. For this purpose, a stool sample is first taken before starting the administration of 1,8-cineole and then again after 2 weeks of taking 1,8-cineole 3 times a day (Soledum® forte, content of 1,8-cineole: 200 mg).
(§2) Stool Stabilizer (company: Stratec Molecular) is added to the stool samples and initially stored at a temperature of −20° C. until further processing. Subsequent DNA extraction is performed using the PSP Spin Stool DNA Plus kit according to the manufacturer's instructions (Stratec Molecular). Finally, the isolated DNA is used for microbiome sequencing (TG MiSeq Reagent Kit v3 & NEBNext® Library Quant Kit for Illumina) and analyzed.
(§3) Following this initial evaluation regarding existing alterations or changes in the intestinal microbiome of patients with polyposis nasi after 2-week ingestion of 1,8-cineole, a detailed evaluation of the microbiome sequencing performed will be performed regarding the bacterial genera identified.

[2] = tested on: bacteria of the family Ruminococcacea or the genus Ruminococcus; assay: as above; format: in vivo, human; conditions: patients with polyposis nasi; after 2-week ingestion, 200 mg 3 times a day
Experimental: as §1, §2, §3

[3] = tested on: bacterial genus Prevotella; assay: as above; format: in vivo, human; conditions: patients with polyposis nasi; after 2-week ingestion, 200 mg 3 times a day
Experimental: as §1, §2, §3

genus Bacteroides = assay: as above; format: in vivo, human; conditions: patients with polyposis nasi; after 2-week therapy, 200 mg 3 times a day
Experimental: as §1, §2, §3

[4] = tested on: Chronic polypous sinusitis; assay: Clinical use in chronic polypous sinusitis; format: in vivo, human
Experimental: (§4) In addition, the effect of 1,8-cineole is further investigated on the basis of the following areas of application, with 200 mg of 1,8-cineole being administered 3 times a day for the period indicated in each case (Soledum® forte): • 1. Chronic polypous sinusitis • 2. Chronic recurrent catarrhal sinusitis • 3. Chronic polyposis otitis media without cholesteatoma • 4. Chronic polyposis otitis media with cholesteatoma • Ad 1.

[5] = tested on: Patients with persistent bronchial asthma; assay: Clinical use in persistent bronchial asthma as add-on therapy; format: in vivo, human
[6] = cited from earlier work
[7] = tested on: patients with polyposis nasi; assay: Patient perception and clinical therapy of polyposis nasi; format: in vivo, human
Experimental: In addition to the molecular biological investigations, the individual perception and quality of life of the patients with regard to the 2-week intake of 1,8-cineole is also surveyed. […] In 38 patients (23 men/15 women between 28 and 72 years, average age 54 years) each with polyposis nasi a therapy with 1,8-cineole was performed (3 times 200 mg 1,8-cineole in the form of capsules “Soledum® forte”).

[8] = tested on: cellular complexes of circulating platelets (CD41) with leukocytes; assay: Flow cytometry of cellular complexes of circulating platelets with leukocytes in blood; format: in vivo, human; conditions: for cellular complexes, neutrophils (Neutros), after / cellular complexes, lymphocytes (Lymphos), after / cellular complexes, eosinophils (Eosinos), after / cellular complexes, monocytes (Monos), after: blood of patients with polyposis nasi, after 2-week administration
From the text: Further, these cellular complexes will be specified in more detail by flow cytometer with respect to different leukocyte populations and with respect to the influence of 1,8-cineole.

[9] = tested on: Chronic recurrent catarrhal sinusitis; assay: Clinical use in chronic recurrent catarrhal sinusitis; format: in vivo, human
Experimental: as §4

[10] = tested on: Chronic polyposis otitis media without cholesteatoma; assay: Clinical use in chronic polyposis otitis media without cholesteatoma; format: in vivo, human
Experimental: as §4

intestinal microbiome = assay: Microbiome sequencing of stool samples, principal coordinates analysis (PCoA); format: in vivo, human; conditions: patients with polyposis nasi; before vs after 2-week ingestion, 200 mg 3 times a day (Soledum forte)
Experimental: as §1, §2
The results are illustrated in FIG. 1 in the form of principal coordinate analysis (PCoA) of the examined stool samples of the patients (1 to 5) with polyposis nasi before (without labeling, unfilled circle symbols) and after 2-week ingestion of 1,8-cineole (marked with “*”, filled circle symbols).

[11] = tested on: Chronic polyposis otitis media with cholesteatoma; assay: Clinical use in chronic polyposis otitis media with cholesteatoma; format: in vivo, human
Experimental: as §4

[12] = tested on: monocytes circulating in the blood; assay: Flow cytometry of monocyte subtypes (CD14/CD16) in blood; format: in vivo, human
Experimental: The monocytes circulating in the blood can be divided into the three different subtypes, namely “classical”, “intermediate” and “non-classical”, on the basis of their surface proteins CD14 and CD16 by flow cytometry. In flow cytometry, cells are analyzed for cell size, granularity and fluorescent labeling of specific epitopes by passing specific lasers. This allows different cell populations to be differentiated and characterized. […] These observations are now comprehensively analyzed in additional patients individually by flow cytometer, especially under the influence of 1,8-cineole. […] In this regard, reference can also be made to FIG. 5A/B.

[13] = 200 mg 3 times a day, 2-week administration, preoperatively
[14] = twelve weeks of continuous therapy
[15] = 38 patients with polyposis nasi, 3 times 200 mg, Soledum forte capsules
[16] = one case, small polyps on the olfactory groove, after 2 weeks
[17] = 2-week administration, preoperatively, previously refractory otorrhea (local and systemic antibiotics)
[18] = after tympanoplasty, renewed otorrhea with recurrent perforation, 4-week administration
[19] = 2-week administration, preoperatively
[20] = after tympanoplasty, renewed otorrhea with recurrent perforation, 4 weeks of administration

## CC12CCC(CC1)C(C)(C)O2 [1,8-cineole, 1,3,3-trimethyl-2-oxabicyclo[2.2.2]octane]
[1]
  occurrence of Lachnospiraceae, Bifidobacterium or Faecalibacterium: certain changes or shifts with a tendency to increase
[2]
  bacteria of the family Ruminococcacea or genus Ruminococcus: significant increase
[3]
  presence of Prevotella in the intestine: significantly reduced; also recorded: almost complete disappearance
Genus Bacteroides
  occurrence of Bacteroides in the intestinal microbiome: significantly more abundant
[4]; [13]
  accompanying symptoms of the polyps (anterior and posterior watery rhinorrhea): reduction of the accompanying symptoms
[4]; 200 mg 3 times a day, 2-week administration, preoperatively, individual cases
  olfactory performance: In individual cases also improvement
[4]; postoperative
  wound healing: positive influence
[4]; postoperative, in combination with a nasal steroid
  recurrences and systemic cortisone administration: reduction of recurrences and systemic cortisone administration
[5]; 4 times 200 mg/die perorally
  tolerability: well tolerated without side effects
[5]; 4 times 200 mg/die perorally, one week, with inhaled glucocorticoid, long-acting beta-2-sympathomimetic and theophylline
  lung function: slight to moderate improvement
[5]; 4 times 200 mg/die perorally, twelve weeks of continuous therapy
  reduction of inhaled glucocorticoid requirements: more than 50%
[5]; [14]
  glucocorticoid use in some of the patients treated: temporarily discontinued altogether
  need for betamimetics in some patients: significantly reduced
[6]
  solubility in water: insoluble
[7]; [15]
  nasal breathing: correspondingly improved
  secretion drainage: significantly improved
[7]; [16]
  nasal polyps: significant decrease
  olfactory sensation: marked improvement
[7]; polyposis patients consulted, 2-week intake
  patients' response (individual perception and quality of life): predominantly positive
[8]; Table 2 (data n2), before 5.37%
  cellular complexes, neutrophils (Neutros), after: 5.09%
[8]; Table 2 (data n2), before 5.4%
  cellular complexes, lymphocytes (Lymphos), after: 5.12%
[8]; Table 2 (data n2), before 10.7%
  cellular complexes, eosinophils (Eosinos), after: 4.8%
[8]; Table 2 (data n2), before 16.8%
  cellular complexes, monocytes (Monos), after: 6.28%
[8]; data n1, before 7.3%
  cellular complexes, eosinophils (Eosinos), after: 5.92%
[8]; data n1, before 12.4%
  cellular complexes, lymphocytes (Lymphos), after: 5.54%
[8]; data n1, before 13.9%
  cellular complexes, neutrophils (Neutros), after: 5.02%
[8]; data n1, before 14.7%
  cellular complexes, monocytes (Monos), after: 8.79%
[8]; patients with polyposis nasi, after taking over a period of two weeks
  monocyte complexes in blood: massive reduction
[9]; [13]
  concomitant symptoms of polyps (anterior and posterior watery rhinorrhea): decrease in concomitant symptoms
  olfactory performance: significant improvement
[9]; postoperative
  use of nasal steroids: reduction of nasal steroids
  wound healing: positive influence
[10]; [17]
  otorrhea: decrease in otorrhea, allowing surgery
[10]; [18]
  otorrhea: decrease in otorrhea
  tympanic membrane: spontaneous tympanic membrane closure
Intestinal microbiome
  shift of beta diversity (PCoA) of stool samples: clear shift
[11]; [19]
  cholesteatom masses: no reduction
  inflamed mucosa of middle ear and mastoid: positive effect
[11]; [17]
  concomitant otorrhea: decrease in concomitant otorrhea, allowing surgery
[11]; [20]
  otorrhea: decrease of otorrhea
  tympanic membrane: spontaneous tympanic membrane closure
[12]; additional patients, 2-week therapy (FIG. 5A/B)
  monocyte distribution, additional patients analysed individually: restoration of the monocyte distribution
[12]; after 2-week therapy (FIG. 5A)
  CD16 "classical" monocytes (CD16 neg.): significant increase
[12]; after 2-week therapy (FIG. 5B)
  "intermediate" monocytes (CD16 pos.): clear decrease
[12]; patients with polyposis nasi, after 2-week intake, compared with healthy donors (FIG. 4)
  distribution of monocyte subpopulations: marked normalization or reversion
